Literature values in US6066339A (priority 1997, dated 2000).

Tested on: μ-opioid
Conditions: animal experiments

CN1CC[C@]23c4c5ccc(O)c4O[C@H]2[C@@H](O[C@@H]2O[C@H](C(=O)O)[C@@H](O)[C@H](O)[C@H]2O)C=C[C@H]3[C@H]1C5 [morphine-6-glucuronide]
μ-opioid agonism: potent μ-opioid agonist
